Experimental data reported in the supplement of paper PMC6723410.

System: GUMC-403
Test: viability at highest tested concentration (max response) relative to DMSO (% of DMSO control); higher = less cytotoxic
Settings: library / dose series: MIPE library, 11-point 1:3 dilution; top concentration 46.1 µM; 48 h
Summary of the method: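 The value is viability at the highest tested concentration, expressed relative to vehicle control. Patient-derived GUMC-403 papilloma cells, grown by conditional reprogramming, were seeded at 700/well in 5 μL F + Y medium in 1536-well plates. After an overnight incubation at 37 °C, they received 23 nL of compound by pin tool for 48 h. Readout was CellTiter-Glo luminescence on a ViewLux, normalised to vehicle wells (100%) and empty wells (0%).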

Point of comparison: `CCOc1cc(CC(=O)N[C@@H](CC(C)C)c2ccccc2N2CCCCC2)ccc1C(=O)O`, viability 143. Against it:
- CN(C)CCc1c[nH]c2ccc(C[S+](=O)([O-])N3CCCC3)cc12 — lower, 78.5
- CCOC(=O)O[C@]1(C(=O)OCCl)CC[C@H]2[C@@H]3CCC4=CC(=O)C=C[C@]4(C)[C@H]3[C@@H](O)C[C@@]21C — higher, 149
- COC(=O)N[C@H](C(=O)N[C@@H](Cc1ccccc1)[C@@H](O)CN(Cc1ccc(-c2ccccn2)cc1)NC(=O)[C@@H](NC(=O)OC)C(C)(C)C)C(C)(C)C — lower, 112
- Cc1n[nH]c(C)c1Cc1sc2c(c1C(=O)N1C[C@H](O)CO1)c(=O)n(C)c(=O)n2CC(C)C — lower, 119
- CNCCCC12CCC(c3ccccc31)c1ccccc12 — lower, 105
- C[C@](O)(CS(=O)(=O)c1ccc(F)cc1)C(=O)Nc1ccc(C#N)c(C(F)(F)F)c1 — lower, 128
- OCC(O)C(O)C(O)CO (stereo not given) — lower, 97.1
- CCc1cncnc1N1CCN(Cc2nc3cc(C(F)(F)F)ccc3[nH]2)CC1 — lower, 84.5
- O=C(CN1C(=O)C2(CCCC2)NC[C@H]1c1cc(F)cc(F)c1)Nc1ccc2c(c1)C[C@@]1(C2)C(=O)Nc2ncccc21 — higher, 148
- CN(CC(=O)N(Cc1ccc(C2CCCCC2)cc1)c1ccc(C(=O)O)c(O)c1)[S+](=O)([O-])c1c(F)c(F)c(F)c(F)c1F — lower, 112
- COC1=CC=C(C=C1O)C/2=C/C(=O)C3=C(O2)C=C(O[C@@H]4O[C@H](CO[C@@H]5O[C@@H](C)[C@H](O)[C@@H](O)[C@H]5O)[C@@H](O)[C@H](O)[C@H]4O)C=C3O — lower, 117
- Cc1nc(-c2ccc(OCC(C)C)c(C#N)c2)sc1C(=O)O — lower, 129
- Cc1cccc(C)c1NC(=O)CN1CCCC1=O — lower, 106
- NC(=O)c1ncn([C@@H]2O[C@H](CO)[C@@H](O)[C@H]2O)n1 — lower, 99.6
- Nc1ccccc1NC(=O)c1ccc(CNC(=O)OCc2cccnc2)cc1 — lower, 110
- Cc1nc(C(=O)NCC(=O)O)c(O)c2ccc(Oc3ccccc3)cc12 — lower, 132
- CCCCCCCN(CC)CCCC(O)c1ccc(NS(C)(=O)=O)cc1.CCCCCCCN(CC)CCCC(O)c1ccc(NS(C)(=O)=O)cc1.O=C(O)/C=C/C(=O)O (stereo not given) — lower, 106
- CC/1=C(\CCN2CCC(CC2)C3=NOC4=C3C=CC(=C4)F)C(=O)N/5CCCCC5=N1 — lower, 114
- Cn1cc(-c2ccc3ncc(Cc4ccc5ncccc5c4)n3n2)cn1 — lower, 123
- CC1(C)[C@@H](O[C@H]2O[C@H](C(=O)O)[C@@H](O)[C@H](O)[C@H]2O[C@@H]2O[C@H](C(=O)O)[C@@H](O)[C@H](O)[C@H]2O)CC[C@]2(C)[C@H]3C(=O)C=C4[C@@H]5C[C@@](C)(C(=O)O)CC[C@]5(C)CC[C@@]4(C)[C@]3(C)CC[C@@H]12 — lower, 115
- CCN(CCO)CCCC(C)Nc1ccnc2cc(Cl)ccc12 (stereo not given) — lower, 116
- CC1=C(C)C2=C(S1)[N]3C(=NN=C3[C@H](CC(=O)OC(C)(C)C)/N=C2/C4=CC=C(Cl)C=C4)C — lower, 65
- COc1cc2ncnc(Nc3ccc(F)c(Cl)c3)c2cc1NC(=O)/C=C/CN1CCCCC1 — lower, 63.8
- CO[C@H]1C[C@@H]2CC[C@@H](C)[C@@](O)(O2)C(=O)C(=O)N2CCCC[C@H]2C(=O)O[C@H]([C@H](C)C[C@@H]2CC[C@@H](OC(=O)C(C)(CO)CO)[C@H](OC)C2)CC(=O)[C@H](C)/C=C(\C)[C@@H](O)[C@@H](OC)C(=O)[C@H](C)C[C@H](C)/C=C/C=C/C=C/1C — lower, 110
- CCCC1OC2C[C@H]3[C@@H]4CCC5=CC(=O)C=C[C@]5(C)[C@H]4C(O)C[C@]3(C)[C@]2(C(=O)CO)O1 (stereo not given in full) — lower, 121
- COc1cccc2c1[C@]13CCN(CC4CC4)[C@H](C2)[C@]1(OC)CCC(=O)C3 — lower, 107
- CN1C(=O)/C=C(/NCCN(CCO)CCCC2=CC=C(C=C2)[N+]([O-])=O)N(C)C1=O — lower, 94.3
- O=C(NNC(=O)c1ccc(CN[S+](=O)([O-])c2ccc(F)c(Cl)c2)cc1)c1ccccc1 — lower, 129
- [NH2][Pt]([NH2])([Cl])[Cl] — lower, 128
- S=P(N1CC1)(N1CC1)N1CC1 — lower, 115
- Cc1ccc(-c2ncn(-c3ccc(Nc4nccc(-c5cccc(N6CCOCC6)c5)n4)cc3)n2)cn1 — lower, 32
- COCC(=O)NC/C=C/c1ccc2ncnc(Nc3ccc(Oc4ccc(C)nc4)c(C)c3)c2c1 — lower, 98.1
- O=C1[C@H](Cc2ccc(O)cc2)N2C(=O)CCN(C(=O)NCc3ccccc3)[C@H]2CN1Cc1cccc2ccccc12 — lower, 78.2
- C[N+]1(C)[C@@H]2C[C@@H](OC(=O)[C@H](CO)c3ccccc3)C[C@H]1[C@@H]1O[C@@H]12.[Br-] — lower, 120
- CNC(=O)c1cc(Oc2ccc(NC(=O)Nc3cc(C(C)(C)C)nn3-c3ccc4ncccc4c3)c(F)c2)ccn1 — lower, 83.8
- CN1CCN(Cc2ccc(NC(=O)Nc3ccc(Oc4cc(NC(=O)C5CC5)ncn4)cc3)cc2C(F)(F)F)CC1 — lower, 52.7
- COc1cc(Nc2ncc(F)c(Nc3ccc4c(n3)NC(=O)C(C)(C)O4)n2)cc(OC)c1OC — lower, 89.6
- O=c1cc(-c2ccc(O)c(O)c2)oc2cc(O)cc(O)c12 — lower, 115
- COc1cc(O)c2c(c1)C1OC1C[C@H](O)[C@H](O)C(=O)/C=C\C[C@H](C)OC2=O (stereo not given in full) — lower, 107
- CN(CCOc1ccc(CC2SC(=O)NC2=O)cc1)c1ccccn1 (stereo not given) — lower, 118
- CN1CCC(CNc2ccc3ncc(-c4cccc(OC(F)(F)F)c4)n3n2)CC1 — lower, 52.5
- CC(N[C@H]1CCCC[C@@H]1NC(=O)c1ccc(Cl)cc1)c1cccc2ccccc12 (stereo not given in full) — lower, 91.2
- CC(C)Oc1ccc(C(=O)N[C@H](CNC(=O)CN(C)C)Cc2ccc(-c3cn4cccc([C@H](C)O)c4n3)cc2)cc1Cl — lower, 98.1
- CN[C@@H](C)C(=O)N[C@H]1CCCC[C@H]2CC[C@@H](C(=O)N[C@@H](c3ccccc3)c3cn(CCCCc4ccc(CCCCn5cc([C@@H](NC(=O)[C@@H]6CC[C@@H]7CCCC[C@H](NC(=O)[C@H](C)NC)C(=O)N76)c6ccccc6)nn5)cc4)nn3)N2C1=O — lower, 110
- C[C@@H]1CN(Cc2ccc(F)cc2)[C@@H](C)CN1C(=O)c1cc2c(C(=O)C(=O)N(C)C)cn(C)c2cc1Cl — lower, 101
- CCCNC(=O)[C@H]1O[C@@H]1C(=O)N[C@H](C(=O)N1CCC[C@H]1C(=O)OC)C(C)CC (stereo not given in full) — lower, 109
- CC[C@H](C)C(=O)O[C@H]1C[C@H](O)\C=C2\C=C/[C@H](C)[C@H](CC[C@@H](O)C[C@@H](O)CC(O)=O)[C@@H]12 — lower, 103
- Cc1ncc([N+](=O)[O-])n1CC(C)O (stereo not given) — lower, 110
- O=C(c1ccc(F)cc1)C1CCN(CCn2c(=O)[nH]c3ccccc3c2=O)CC1 — lower, 110
- C=C1/C(=C/C=C2\CCCC3(C)[C@@H]([C@H](C)/C=C/C=C/C(O)(CC)CC)CC[C@@H]23)C[C@@H](O)C[C@@H]1O (stereo not given in full) — higher, 148
- Cc1cccc(Nc2nc(-c3ccncc3)cs2)c1 — lower, 109
- N[C@@H](Cc1cc(I)c(Oc2cc(I)c(O)c(I)c2)c(I)c1)C(=O)O — lower, 123
- CNC(=O)c1ccc(N2C(=S)N(c3ccc(C#N)c(C(F)(F)F)c3)C(=O)C23CCC3)cc1F — lower, 81.8
- CC(N)C12CC3CC(CC(C3)C1)C2 (stereo not given) — lower, 104
